These compounds were tested on COG-LL-317 (assay: selective drug sensitivity score (sDSS, relative to normal bone marrow) (sDSS (score)); higher = more potent and effective on the cell line relative to normal bone marrow cells). Settings: 72 h.
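Note: ALL cell lines in 384-well plates, five doses spanning 10,000-fold, each plate scaled between vehicle and 100 µmol/L benzalkonium chloride controls, sDSS an adapted area-under-curve metric.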

**Q.** `COc1cc(CCc2cc(NC(=O)c3ccc(N4CC(C)NC(C)C4)cc3)n[nH]2)cc(OC)c1` (stereo not given) [AZD4547] (top concentration 1000 nM) was tested. Which “selective drug sensitivity score” value did it give?
**A.** The value was -0.14.

**Q.** `CN(C)C(=O)c1ccc(S(=O)(=O)c2ccc(NC(=O)[C@@](C)(O)C(F)(F)F)c(Cl)c2)cc1` [AZD7545] (top concentration 10000 nM) was tested. Which “selective drug sensitivity score” value did it give?
**A.** The value was 0.7.

**Q.** How did the “selective drug sensitivity score” value turn out when `COc1cc(C)c(/C=C/C(C)=C/C=C/C(C)=C/C(=O)O)c(C)c1C` [Acitretin] (top concentration 10000 nM) was run?
**A.** Its value is -0.5.

**Q.** Which “selective drug sensitivity score” value does the source give for `CCC1(c2ccc(N)cc2)CCC(=O)NC1=O` (stereo not given) [Aminoglutethimide] (top concentration 10000 nM) here?
**A.** Its value is 0.

**Q.** With `CNC(=O)c1ccc(N2C(=S)N(c3cnc(C#N)c(C(F)(F)F)c3)C(=O)C23CCC3)cc1F` [Apalutamide] (top concentration 10000 nM) as the compound, how does the “selective drug sensitivity score” value read?
**A.** The value was 0.

**Q.** How did the “selective drug sensitivity score” value turn out when `N#CC1(c2ccc(NC(=O)c3cccnc3NCc3ccncc3)cc2)CCCC1` [Apatinib] (top concentration 10000 nM) was run?
**A.** Its value is 0.

**Q.** With `Cc1nc2cccc(N)c2c(=O)n1C1CCC(=O)NC1=O` (stereo not given) [Avadomide (CC122)] (top concentration 10000 nM) as the compound, how does the “selective drug sensitivity score” value read?
**A.** Its value is 0.

**Q.** How did the “selective drug sensitivity score” value turn out when `Nc1nc(Nc2ccc3c(c2)CC[C@@H](N2CCCC2)CC3)nn1-c1cc2c(nn1)-c1ccccc1CCC2` [BGB324] (top concentration 10000 nM) was run?
**A.** The value was -0.38.

**Q.** With `CC1(C)C(C(=O)Nc2ccc(S(=O)(=O)c3ccc(NC(=O)C4C(C)(C)C4(C)C)cc3)cc2)C1(C)C` [BRD7116] (top concentration 10000 nM) as the compound, how does the “selective drug sensitivity score” value read?
**A.** Its value is -0.24.

The compounds below were run on COG-LL-355h in the same assay as above. Settings: 72 h.

**Q.** How did the “selective drug sensitivity score” value turn out when `CNC(=O)c1ccc(C)c(-n2c(C)cc(OCc3ccc(F)cc3F)c(Br)c2=O)c1` (top concentration 1000 nM) was run?
**A.** Its value is 0.

**Q.** Which “selective drug sensitivity score” value does the source give for `CONC(=O)c1ccccc1Nc1cc(Nc2cc(C)nn2C(C)C)ncc1Cl` (top concentration 1000 nM) here?
**A.** The value was 1.66.

**Q.** How did the “selective drug sensitivity score” value turn out when `CCOc1ccn(-c2ccc(F)cc2)c(=O)c1C(=O)Nc1ccc(Oc2ccnc(N)c2Cl)c(F)c1` (top concentration 2500 nM) was run?
**A.** Its value is 0.

**Q.** With `CC[C@@H]1[C@H](F)C(=O)N[C@@H]1COc1nccc2cc(C(N)=O)c(OC)cc12` (top concentration 10000 nM) as the compound, how does the “selective drug sensitivity score” value read?
**A.** The value was 1.28.

**Q.** `C[C@H]1C[C@@H](n2c(Nc3ccc(OC(F)(F)F)cc3)nc3cc(CCC(=O)O)ccc32)CC(C)(C)C1` (top concentration 10000 nM) was tested. Which “selective drug sensitivity score” value did it give?
**A.** The value was 2.16.

**Q.** Which “selective drug sensitivity score” value does the source give for `O=C(NCc1ccncc1)C12CC3CC(C1)CC(c1ccc(Cl)cc1)(C3)C2` (top concentration 50000 nM) here?
**A.** Its value is 0.48.

**Q.** Which “selective drug sensitivity score” value does the source give for `O=C(O)c1ccc(CN2CCC(CN[C@@H]3C[C@H]3c3ccccc3)CC2)cc1` (top concentration 100000 nM) here?
**A.** The value was 0.58.

**Q.** Which “selective drug sensitivity score” value does the source give for `COc1cc(N2CCN(C)CC2)ccc1Nc1nccc(-c2cn(C)c3cnccc23)n1` [AZ191] (top concentration 10000 nM) here?
**A.** Its value is -0.02.

**Q.** `Cc1cc(Nc2nc(N[C@@H](C)c3ncc(F)cn3)ncc2Cl)[nH]n1` [AZD1480] (top concentration 1000 nM) was tested. Which “selective drug sensitivity score” value did it give?
**A.** The value was 0.42.

**Q.** With `COc1cc(CCc2cc(NC(=O)c3ccc(N4CC(C)NC(C)C4)cc3)n[nH]2)cc(OC)c1` (stereo not given) [AZD4547] (top concentration 1000 nM) as the compound, how does the “selective drug sensitivity score” value read?
**A.** Its value is -0.14.

**Q.** For `CN(C)C(=O)c1ccc(S(=O)(=O)c2ccc(NC(=O)[C@@](C)(O)C(F)(F)F)c(Cl)c2)cc1` [AZD7545] (top concentration 10000 nM), which “selective drug sensitivity score” value is on record?
**A.** Its value is -0.2.

**Q.** How did the “selective drug sensitivity score” value turn out when `COc1cc(C)c(/C=C/C(C)=C/C=C/C(C)=C/C(=O)O)c(C)c1C` [Acitretin] (top concentration 10000 nM) was run?
**A.** The value was 2.3.

**Q.** How did the “selective drug sensitivity score” value turn out when `CCC1(c2ccc(N)cc2)CCC(=O)NC1=O` (stereo not given) [Aminoglutethimide] (top concentration 10000 nM) was run?
**A.** Its value is 0.6.

**Q.** For `CNC(=O)c1ccc(N2C(=S)N(c3cnc(C#N)c(C(F)(F)F)c3)C(=O)C23CCC3)cc1F` [Apalutamide] (top concentration 10000 nM), which “selective drug sensitivity score” value is on record?
**A.** Its value is 0.

**Q.** With `N#CC1(c2ccc(NC(=O)c3cccnc3NCc3ccncc3)cc2)CCCC1` [Apatinib] (top concentration 10000 nM) as the compound, how does the “selective drug sensitivity score” value read?
**A.** Its value is 0.

**Q.** `Cc1nc2cccc(N)c2c(=O)n1C1CCC(=O)NC1=O` (stereo not given) [Avadomide (CC122)] (top concentration 10000 nM) was tested. Which “selective drug sensitivity score” value did it give?
**A.** Its value is 2.6.

**Q.** How did the “selective drug sensitivity score” value turn out when `Nc1nc(Nc2ccc3c(c2)CC[C@@H](N2CCCC2)CC3)nn1-c1cc2c(nn1)-c1ccccc1CCC2` [BGB324] (top concentration 10000 nM) was run?
**A.** The value was 3.82.

**Q.** Which “selective drug sensitivity score” value does the source give for `CC1(C)C(C(=O)Nc2ccc(S(=O)(=O)c3ccc(NC(=O)C4C(C)(C)C4(C)C)cc3)cc2)C1(C)C` [BRD7116] (top concentration 10000 nM) here?
**A.** Its value is -0.24.

What follows are compounds tested on COG-LL-402h in the same assay as above. Settings: 72 h.

**Q.** How did the “selective drug sensitivity score” value turn out when `CNC(=O)c1ccc(C)c(-n2c(C)cc(OCc3ccc(F)cc3F)c(Br)c2=O)c1` (top concentration 1000 nM) was run?
**A.** Its value is 0.

**Q.** With `CONC(=O)c1ccccc1Nc1cc(Nc2cc(C)nn2C(C)C)ncc1Cl` (top concentration 1000 nM) as the compound, how does the “selective drug sensitivity score” value read?
**A.** Its value is -0.94.

**Q.** `CCOc1ccn(-c2ccc(F)cc2)c(=O)c1C(=O)Nc1ccc(Oc2ccnc(N)c2Cl)c(F)c1` (top concentration 2500 nM) was tested. Which “selective drug sensitivity score” value did it give?
**A.** Its value is 0.

**Q.** How did the “selective drug sensitivity score” value turn out when `CC[C@@H]1[C@H](F)C(=O)N[C@@H]1COc1nccc2cc(C(N)=O)c(OC)cc12` (top concentration 10000 nM) was run?
**A.** Its value is 3.08.

**Q.** Which “selective drug sensitivity score” value does the source give for `C[C@H]1C[C@@H](n2c(Nc3ccc(OC(F)(F)F)cc3)nc3cc(CCC(=O)O)ccc32)CC(C)(C)C1` (top concentration 10000 nM) here?
**A.** Its value is -0.14.

**Q.** `O=C(NCc1ccncc1)C12CC3CC(C1)CC(c1ccc(Cl)cc1)(C3)C2` (top concentration 50000 nM) was tested. Which “selective drug sensitivity score” value did it give?
**A.** Its value is 0.08.

**Q.** `O=C(O)c1ccc(CN2CCC(CN[C@@H]3C[C@H]3c3ccccc3)CC2)cc1` (top concentration 100000 nM) was tested. Which “selective drug sensitivity score” value did it give?
**A.** Its value is -0.62.

**Q.** For `COc1cc(N2CCN(C)CC2)ccc1Nc1nccc(-c2cn(C)c3cnccc23)n1` [AZ191] (top concentration 10000 nM), which “selective drug sensitivity score” value is on record?
**A.** Its value is -0.22.

**Q.** For `Cc1cc(Nc2nc(N[C@@H](C)c3ncc(F)cn3)ncc2Cl)[nH]n1` [AZD1480] (top concentration 1000 nM), which “selective drug sensitivity score” value is on record?
**A.** The value was -3.98.

**Q.** How did the “selective drug sensitivity score” value turn out when `COc1cc(CCc2cc(NC(=O)c3ccc(N4CC(C)NC(C)C4)cc3)n[nH]2)cc(OC)c1` (stereo not given) [AZD4547] (top concentration 1000 nM) was run?
**A.** The value was -0.14.

**Q.** Which “selective drug sensitivity score” value does the source give for `CN(C)C(=O)c1ccc(S(=O)(=O)c2ccc(NC(=O)[C@@](C)(O)C(F)(F)F)c(Cl)c2)cc1` [AZD7545] (top concentration 10000 nM) here?
**A.** Its value is -0.2.

**Q.** How did the “selective drug sensitivity score” value turn out when `COc1cc(C)c(/C=C/C(C)=C/C=C/C(C)=C/C(=O)O)c(C)c1C` [Acitretin] (top concentration 10000 nM) was run?
**A.** Its value is -0.1.

**Q.** `CCC1(c2ccc(N)cc2)CCC(=O)NC1=O` (stereo not given) [Aminoglutethimide] (top concentration 10000 nM) was tested. Which “selective drug sensitivity score” value did it give?
**A.** The value was 0.

**Q.** Which “selective drug sensitivity score” value does the source give for `CNC(=O)c1ccc(N2C(=S)N(c3cnc(C#N)c(C(F)(F)F)c3)C(=O)C23CCC3)cc1F` [Apalutamide] (top concentration 10000 nM) here?
**A.** The value was 0.2.

**Q.** For `N#CC1(c2ccc(NC(=O)c3cccnc3NCc3ccncc3)cc2)CCCC1` [Apatinib] (top concentration 10000 nM), which “selective drug sensitivity score” value is on record?
**A.** Its value is 0.

**Q.** How did the “selective drug sensitivity score” value turn out when `Cc1nc2cccc(N)c2c(=O)n1C1CCC(=O)NC1=O` (stereo not given) [Avadomide (CC122)] (top concentration 10000 nM) was run?
**A.** Its value is 0.2.

**Q.** `Nc1nc(Nc2ccc3c(c2)CC[C@@H](N2CCCC2)CC3)nn1-c1cc2c(nn1)-c1ccccc1CCC2` [BGB324] (top concentration 10000 nM) was tested. Which “selective drug sensitivity score” value did it give?
**A.** Its value is 2.32.

**Q.** Which “selective drug sensitivity score” value does the source give for `CC1(C)C(C(=O)Nc2ccc(S(=O)(=O)c3ccc(NC(=O)C4C(C)(C)C4(C)C)cc3)cc2)C1(C)C` [BRD7116] (top concentration 10000 nM) here?
**A.** Its value is -0.24.
